In US7632666B2 (priority 2005, dated 2009):

Key:
[1] = molecular target: T1, haloalkane dehalogenase DbjA (Bradyrhizobium diazoefficiens, UniProt P59337); type: biochemical, Bradyrhizobium japonicum USDA110; conditions: for Relative enzyme activity (%) 5% of solvent / Relative enzyme activity (%) 10% of solvent / Relative enzyme activity (%) 20% of solvent: pH 8.6
[2] = molecular target: haloalkane dehalogenase DhlA (Xanthobacter autotrophicus, UniProt P22643); type: biochemical, Xanthobacter autotrophicus GJ10
[3] = molecular target: haloalkane dehalogenase DhaA (Rhodococcus rhodochrous, UniProt P0A3G2); type: biochemical, Rhodococcus rhodochrous NCIMB 13064
[4] = molecular target: haloalkane dehalogenase LinB (Sphingobium indicum, UniProt D4Z2G1); type: biochemical, Sphingomonas paucimobilis UT26
[5] = molecular target: T1, haloalkane dehalogenase DbjA; type: biochemical, Bradyrhizobium japonicum USDA110
[6] = molecular target: haloalkane dehalogenase LinB wild type (Sphingobium indicum, UniProt D4Z2G1); type: biochemical, Sphingomonas paucimobilis UT26
[7] = molecular target: haloalkane dehalogenase LinB L177A (Sphingobium indicum, UniProt D4Z2G1, L177A); type: biochemical
[8] = molecular target: haloalkane dehalogenase LinB L177C (Sphingobium indicum, UniProt D4Z2G1, L177C); type: biochemical
[9] = molecular target: haloalkane dehalogenase LinB L177G (Sphingobium indicum, UniProt D4Z2G1, L177G); type: biochemical
[10] = molecular target: haloalkane dehalogenase LinB L177F (Sphingobium indicum, UniProt D4Z2G1, L177F); type: biochemical
[11] = molecular target: haloalkane dehalogenase LinB L177K (Sphingobium indicum, UniProt D4Z2G1, L177K); type: biochemical
[12] = molecular target: haloalkane dehalogenase LinB L177T (Sphingobium indicum, UniProt D4Z2G1, L177T); type: biochemical
[13] = molecular target: haloalkane dehalogenase LinB L177W (Sphingobium indicum, UniProt D4Z2G1, L177W); type: biochemical
[14] = molecular target: haloalkane dehalogenase LinB L177D (Sphingobium indicum, UniProt D4Z2G1, L177D); type: biochemical
[15] = molecular target: haloalkane dehalogenase LinB L177H (Sphingobium indicum, UniProt D4Z2G1, L177H); type: biochemical
[16] = molecular target: haloalkane dehalogenase LinB L177M (Sphingobium indicum, UniProt D4Z2G1, L177M); type: biochemical
[17] = molecular target: haloalkane dehalogenase LinB L177Q (Sphingobium indicum, UniProt D4Z2G1, L177Q); type: biochemical
[18] = molecular target: haloalkane dehalogenase LinB L177R (Sphingobium indicum, UniProt D4Z2G1, L177R); type: biochemical
[19] = molecular target: haloalkane dehalogenase LinB L177S (Sphingobium indicum, UniProt D4Z2G1, L177S); type: biochemical
[20] = molecular target: haloalkane dehalogenase LinB L177V (Sphingobium indicum, UniProt D4Z2G1, L177V); type: biochemical
[21] = molecular target: haloalkane dehalogenase LinB L177Y (Sphingobium indicum, UniProt D4Z2G1, L177Y); type: biochemical
Chain of haloalkane dehalogenase LinB L177Y (D4Z2G1 whole entry L177Y, looked up): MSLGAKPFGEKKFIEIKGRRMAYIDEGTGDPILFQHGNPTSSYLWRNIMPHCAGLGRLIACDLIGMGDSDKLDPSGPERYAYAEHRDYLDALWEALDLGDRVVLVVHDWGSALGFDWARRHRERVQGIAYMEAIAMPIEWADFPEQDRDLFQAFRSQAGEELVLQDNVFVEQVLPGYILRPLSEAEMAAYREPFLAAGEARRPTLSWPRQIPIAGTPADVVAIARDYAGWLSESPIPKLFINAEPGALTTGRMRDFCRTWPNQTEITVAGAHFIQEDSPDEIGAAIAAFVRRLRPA

Chain of haloalkane dehalogenase DhlA (P22643 whole entry): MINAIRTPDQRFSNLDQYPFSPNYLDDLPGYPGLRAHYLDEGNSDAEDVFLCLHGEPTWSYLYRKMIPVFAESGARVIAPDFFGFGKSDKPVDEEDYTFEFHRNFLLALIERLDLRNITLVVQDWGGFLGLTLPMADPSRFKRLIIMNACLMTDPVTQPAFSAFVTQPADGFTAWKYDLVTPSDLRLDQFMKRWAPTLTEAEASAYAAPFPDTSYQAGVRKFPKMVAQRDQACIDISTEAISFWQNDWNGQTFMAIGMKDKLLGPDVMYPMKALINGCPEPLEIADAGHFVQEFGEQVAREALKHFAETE
Chain of haloalkane dehalogenase LinB L177A (D4Z2G1 whole entry L177A, looked up): as the sequence (D4Z2G1 whole entry L177Y, looked up) above, with Y177A counted along it
Chain of haloalkane dehalogenase LinB L177S (D4Z2G1 whole entry L177S, looked up): as the sequence (D4Z2G1 whole entry L177Y, looked up) above, with Y177S counted along it
T1 sequence (P59337 whole entry): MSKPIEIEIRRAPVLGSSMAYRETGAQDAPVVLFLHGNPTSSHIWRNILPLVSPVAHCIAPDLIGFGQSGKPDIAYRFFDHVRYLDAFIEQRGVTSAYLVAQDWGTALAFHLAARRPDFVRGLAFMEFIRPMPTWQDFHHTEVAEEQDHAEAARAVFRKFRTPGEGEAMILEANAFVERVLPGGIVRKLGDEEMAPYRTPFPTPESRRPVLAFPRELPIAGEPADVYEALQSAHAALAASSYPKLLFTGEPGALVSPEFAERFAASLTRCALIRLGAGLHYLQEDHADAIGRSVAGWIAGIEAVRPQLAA
Chain of haloalkane dehalogenase LinB L177C (D4Z2G1 whole entry L177C, looked up): as the sequence (D4Z2G1 whole entry L177Y, looked up) above, with Y177C counted along it
Chain of haloalkane dehalogenase LinB L177M (D4Z2G1 whole entry L177M, looked up): as the sequence (D4Z2G1 whole entry L177Y, looked up) above, with Y177M counted along it
Chain of haloalkane dehalogenase LinB L177W (D4Z2G1 whole entry L177W, looked up): as the sequence (D4Z2G1 whole entry L177Y, looked up) above, with Y177W counted along it
Chain of haloalkane dehalogenase LinB L177F (D4Z2G1 whole entry L177F, looked up): as the sequence (D4Z2G1 whole entry L177Y, looked up) above, with Y177F counted along it
Chain of haloalkane dehalogenase LinB L177V (D4Z2G1 whole entry L177V, looked up): as the sequence (D4Z2G1 whole entry L177Y, looked up) above, with Y177V counted along it
Chain of haloalkane dehalogenase LinB L177D (D4Z2G1 whole entry L177D, looked up): as the sequence (D4Z2G1 whole entry L177Y, looked up) above, with Y177D counted along it
Chain of haloalkane dehalogenase LinB L177T (D4Z2G1 whole entry L177T, looked up): as the sequence (D4Z2G1 whole entry L177Y, looked up) above, with Y177T counted along it
Chain of haloalkane dehalogenase LinB L177R (D4Z2G1 whole entry L177R, looked up): as the sequence (D4Z2G1 whole entry L177Y, looked up) above, with Y177R counted along it
Chain of haloalkane dehalogenase DhaA (P0A3G2 whole entry): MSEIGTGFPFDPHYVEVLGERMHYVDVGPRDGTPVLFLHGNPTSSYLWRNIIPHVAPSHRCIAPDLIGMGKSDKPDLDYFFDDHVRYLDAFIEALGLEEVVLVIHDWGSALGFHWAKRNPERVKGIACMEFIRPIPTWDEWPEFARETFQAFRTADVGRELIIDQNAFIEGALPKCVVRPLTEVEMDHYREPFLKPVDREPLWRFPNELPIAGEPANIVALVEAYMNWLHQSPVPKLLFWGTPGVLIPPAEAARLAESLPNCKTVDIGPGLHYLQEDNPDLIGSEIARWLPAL
Chain of haloalkane dehalogenase LinB L177Q (D4Z2G1 whole entry L177Q, looked up): as the sequence (D4Z2G1 whole entry L177Y, looked up) above, with Y177Q counted along it
Chain of haloalkane dehalogenase LinB L177K (D4Z2G1 whole entry L177K, looked up): as the sequence (D4Z2G1 whole entry L177Y, looked up) above, with Y177K counted along it
Chain of haloalkane dehalogenase LinB wild type (D4Z2G1 whole entry): as the sequence (D4Z2G1 whole entry L177Y, looked up) above, with Y177L counted along it
Chain of haloalkane dehalogenase LinB (D4Z2G1 whole entry): as the sequence (D4Z2G1 whole entry L177Y, looked up) above, with Y177L counted along it
Chain of haloalkane dehalogenase LinB L177H (D4Z2G1 whole entry L177H, looked up): as the sequence (D4Z2G1 whole entry L177Y, looked up) above, with Y177H counted along it
Chain of haloalkane dehalogenase LinB L177G (D4Z2G1 whole entry L177G, looked up): as the sequence (D4Z2G1 whole entry L177Y, looked up) above, with Y177G counted along it

| SMILES | Relative enzyme activity (%) 5% of solvent [1] [%] | Relative enzyme activity (%) 10% of solvent [1] [%] | Relative enzyme activity (%) 20% of solvent [1] [%] | E-values DhlA [2] | E-values DhaA [3] | E-values LinB [4] | E-values DbjA [5] | other results |
| --- | --- | --- | --- | --- | --- | --- | --- | --- |
| OCCO [ethyleneglycol] | 87.1 ± 9.8 | 80.5 ± 8.9 | 109.8 ± 4.0 |  |  |  |  |  |
| NC=O [Formamide] | 73.4 ± 7.6 | 76.3 ± 5.0 | 16.3 ± 0.6 |  |  |  |  |  |
| CC(CCl)CBr (racemic) [1-bromo-3-chloro-2-methylpropane] |  |  |  | 1.8 | 1.7 | 1.8 | 1.4 |  |
| CC#N [acetonitrile] | 117.5 ± 8.9 | 124.1 ± 1.0 | 0.0 ± 0.0 |  |  |  |  |  |
| CC(Cl)CCl (stereo not drawn) [1,2-dichloropropane] |  |  |  | 2 |  |  |  |  |
| C1CCOC1 [tetrahydrofurane] | 111.9 ± 13.4 | 96.9 ± 9.0 | 0.0 ± 0.0 |  |  |  |  |  |
| CO [Methanol] | 93.5 ± 0.9 | 128.7 ± 3.5 | 160.7 ± 2.0 |  |  |  |  | DbjA activity in the presence of the solvent in the reaction medium [1]: increasing activity |
| CN(C)C=O [N,N-dimethylformamide] | 110.5 ± 11.6 | 112.6 ± 3.8 | 101.9 ± 1.0 |  |  |  |  |  |
| CCCCI [1-iodobutane] |  |  |  |  |  |  |  | Relative activities (% of wt) wt1 [6]: 100 % of wt; Relative activities (% of wt) wt2 [6]: 100 % of wt; Relative activities (% of wt) L177A [7]: 133 % of wt; Relative activities (% of wt) L177C [8]: 210 % of wt; Relative activities (% of wt) L177G [9]: 344 % of wt; Relative activities (% of wt) L177F [10]: 126 % of wt; Relative activities (% of wt) L177K [11]: 131 % of wt; Relative activities (% of wt) L177T [12]: 424 % of wt; Relative activities (% of wt) L177W [13]: 58 % of wt; Relative activities (% of wt) L177D [14]: 259 % of wt; Relative activities (% of wt) L177H [15]: 208 % of wt; Relative activities (% of wt) L177M [16]: 187 % of wt; Relative activities (% of wt) L177Q [17]: 373 % of wt; Relative activities (% of wt) L177R [18]: 161 % of wt; Relative activities (% of wt) L177S [19]: 363 % of wt; Relative activities (% of wt) L177V [20]: 101 % of wt; Relative activities (% of wt) L177Y [21]: 97 % of wt |
| COC(=O)C(Br)CCBr (racemic) [methyl 2,4-dibromobutyrate] |  |  |  | 1.6 | 1 | 1.9 | 1.3 |  |
| C1COCCO1 [1,4-dioxane] | 121.4 ± 3.9 | 139.9 ± 7.8 | 152.0 ± 9.5 |  |  |  |  | DbjA activity in the presence of the solvent in the reaction medium [1]: increasing activity |
| CCCCBr [1-bromobutane] |  |  |  |  |  |  |  | Relative activities (% of wt) wt1 [6]: 100 % of wt; Relative activities (% of wt) wt2 [6]: 100 % of wt; Relative activities (% of wt) L177A [7]: 356 % of wt; Relative activities (% of wt) L177C [8]: 243 % of wt; Relative activities (% of wt) L177G [9]: 380 % of wt; Relative activities (% of wt) L177F [10]: 243 % of wt; Relative activities (% of wt) L177K [11]: 201 % of wt; Relative activities (% of wt) L177T [12]: 553 % of wt; Relative activities (% of wt) L177W [13]: 60 % of wt; Relative activities (% of wt) L177D [14]: 347 % of wt; Relative activities (% of wt) L177H [15]: 224 % of wt; Relative activities (% of wt) L177M [16]: 227 % of wt; Relative activities (% of wt) L177Q [17]: 458 % of wt; Relative activities (% of wt) L177R [18]: 165 % of wt; Relative activities (% of wt) L177S [19]: 381 % of wt; Relative activities (% of wt) L177V [20]: 132 % of wt; Relative activities (% of wt) L177Y [21]: 112 % of wt |
| BrCCBr [1,2-dibromoethane] |  |  |  |  |  |  |  | Relative activities (% of wt) wt1 [6]: 100 % of wt; Relative activities (% of wt) wt2 [6]: 100 % of wt; Relative activities (% of wt) L177A [7]: 155 % of wt; Relative activities (% of wt) L177C [8]: 52 % of wt; Relative activities (% of wt) L177G [9]: 78 % of wt; Relative activities (% of wt) L177F [10]: 70 % of wt; Relative activities (% of wt) L177K [11]: 97 % of wt; Relative activities (% of wt) L177T [12]: 107 % of wt; Relative activities (% of wt) L177W [13]: 7 % of wt; Km [14]: 14 mM; Relative activities (% of wt) L177D [14]: 77 % of wt; Relative activities (% of wt) L177H [15]: 55 % of wt; Relative activities (% of wt) L177M [16]: 126 % of wt; Relative activities (% of wt) L177Q [17]: 123 % of wt; Relative activities (% of wt) L177R [18]: 68 % of wt; Relative activities (% of wt) L177S [19]: 84 % of wt; Relative activities (% of wt) L177V [20]: 84 % of wt; Relative activities (% of wt) L177Y [21]: 16 % of wt |
| CCCCC(C)Br (racemic) [2-bromohexane] |  |  |  |  | 4 | 12 | 35 |  |
| CCC(Br)CBr (racemic) [1,2-dibromobutane] |  |  |  | 1.1 | 2 | 10 | 2.7 |  |
| CC(Br)CBr (stereo not drawn) [1,2-dibromopropane] |  |  |  | 3 | 1.3 | 1.3 | 2.6 |  |
| CCCCCl [1-chlorobutane] |  |  |  |  |  |  |  | Km [14]: 21.9 mM |
| CC(C)(C)C(Br)CBr (racemic) [1,2-dibromo-3,3-dimethylbutane] |  |  |  |  |  | 1.1 |  |  |
| CCCCCC(C)Br (racemic) [2-bromoheptane] |  |  |  | 2.4 | 2.9 | 2.8 | 28 |  |
| CC(Cl)CCCl (racemic) [1,3-dichlorobutane] |  |  |  | 2.8 | 1.6 | 2.6 | 1.0 |  |
| CC(Br)CCBr (racemic) [1,3-dibromobutane] |  |  |  | 2 | 1.3 | 4.6 | 1.4 |  |
| CC(C)=O [acetone] | 113.8 ± 7.3 | 140.3 ± 2.1 | 168.2 ± 3.1 |  |  |  |  | DbjA activity in the presence of the solvent in the reaction medium [1]: increasing activity; increase of reaction rate compared to that in the glycine buffer [1]: 1.68 times |
